Assay results reported in ChEMBL document CHEMBL1201862, “PubChem BioAssay data set” (2004).
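Cultured in 96-well plates, cells were exposed to test compound for 48 hours across five concentrations. GI50 = concentration required for 50% inhibition of growth.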 The source made the active and inactive calls. No stated cut-off is given here; in the data, active = GI50 up to about 1.1 µM and inactive = higher.

Columns and labels:
Assay in all cases: NCI anticancer screen, dose series, 48 h
OVCAR-4 = tested on: OVCAR-4
SNB-75 = tested on: SNB-75
CCRF-CEM = tested on: CCRF-CEM
HL-60 = tested on: HL-60
K562 = tested on: K562
TK-10 = tested on: TK-10
OVCAR-8 = tested on: OVCAR-8
M19-MEL = tested on: M19-MEL
HOP-92 = tested on: HOP-92
U-251 = tested on: U-251
UO-31 = tested on: UO-31
SK-MEL-2 = tested on: SK-MEL-2
NCI-H226 = tested on: NCI-H226
Malme-3M = tested on: Malme-3M
COLO 205 = tested on: COLO 205
RPMI-8226 = tested on: RPMI-8226
DMS-114 = tested on: DMS-114
NCI-H460 = tested on: NCI-H460
NCI-H23 = tested on: NCI-H23
UACC-257 = tested on: UACC-257
SF-539 = tested on: SF-539
A498 = tested on: A498
DMS-273 = tested on: DMS-273
M14 = tested on: M14
SW-620 = tested on: SW-620
CAKI-1 = tested on: CAKI-1
EKVX = tested on: EKVX
LOX IMVI = tested on: LOX IMVI
KM-20L2 = tested on: KM-20L2
SF-295 = tested on: SF-295
786-0 = tested on: 786-0
HT-29 = tested on: HT-29
RXF 393 = tested on: RXF 393
MOLT-4 = tested on: MOLT-4
ACHN = tested on: ACHN
SNB-78 = tested on: SNB-78
NCI-H522 = tested on: NCI-H522
HOP-18 = tested on: HOP-18
SN12C = tested on: SN12C
HCT-116 = tested on: HCT-116
HCC 2998 = tested on: HCC 2998
SK-MEL-28 = tested on: SK-MEL-28
HOP-62 = tested on: HOP-62
OVCAR-3 = tested on: OVCAR-3
DLD-1 = tested on: DLD-1
SF-268 = tested on: SF-268
KM12 = tested on: KM12
SK-OV-3 = tested on: SK-OV-3
UACC-62 = tested on: UACC-62
OVCAR-5 = tested on: OVCAR-5
IGROV-1 = tested on: IGROV-1
A549 = tested on: A549
SK-MEL-5 = tested on: SK-MEL-5
SNB-19 = tested on: SNB-19
HCT-15 = tested on: HCT-15
LXFL 529 = tested on: LXFL 529
SR = tested on: SR

Measured: GI50

CC(=O)OCSc1ncnc2c1ncn2CN1CCOCC1
21.1 µM: HCT-15
inactive: OVCAR-4 23 µM | SNB-75 13.2 µM | CCRF-CEM 1.98 µM | HL-60 6.22 µM | TK-10 7.05 µM | OVCAR-8 28.9 µM | M19-MEL 59 µM | U-251 47.8 µM | UO-31 8.38 µM | SK-MEL-2 > 100 µM | NCI-H226 > 100 µM | Malme-3M 24.9 µM | COLO 205 18.8 µM | RPMI-8226 4.44 µM | DMS-114 6.53 µM | NCI-H460 18.2 µM | NCI-H23 11.9 µM | UACC-257 53.5 µM | SF-539 6.82 µM | A498 > 100 µM | DMS-273 5.11 µM | M14 2.25 µM | SW-620 28.8 µM | CAKI-1 6.37 µM | EKVX > 100 µM | LOX IMVI 2.03 µM | KM-20L2 7.59 µM | SF-295 49.9 µM | 786-0 7.91 µM | HT-29 13.9 µM | RXF 393 14.8 µM | MOLT-4 4.12 µM | ACHN 33 µM | SNB-78 > 100 µM | NCI-H522 3.27 µM | HOP-18 40.1 µM | SN12C 60.1 µM | HCT-116 14.4 µM | HCC 2998 6.46 µM | SK-MEL-28 > 100 µM | HOP-62 10 µM | OVCAR-3 7.23 µM | DLD-1 6.55 µM | SF-268 31.3 µM | KM12 51.1 µM | SK-OV-3 2.01 µM | UACC-62 4.81 µM | OVCAR-5 18.5 µM | IGROV-1 52.5 µM | A549 44.6 µM | SK-MEL-5 49.4 µM | SNB-19 > 100 µM | LXFL 529 > 100 µM | SR 6.14 µM
active: K562 0.841 µM | HOP-92 1.08 µM
